Patent US7557111B2, “Substituted thieno[3,2-d]pyrimidines as CRF receptor antagonists” (Taisho Pharmaceutical Co., Ltd., priority 2004, dated 2009)
Counter-ions that a name gives are not always drawn.

Cc1nc(N2CCC(CO)CC2)c2sc(C)c(-c3c(C)cc(Br)cc3C)c2n1 (as salt: HCl) [compound 1-004, {1-[7-(4-bromo-2,6-dimethyl-phenyl)-2,6-dimethyl-thieno[3,2-d]pyrimidin-4-yl]-piperidin-4-yl}-methanol hydrochloride]
melting point: 242 to 244 °C
